In patent publication US7579356B2, “Thia-tetraazaacenaphthylene kinase inhibitors” (Janssen Pharmaceutica NV, priority 2005, dated 2009) one finds IC50 and inhibition data, which are given here for 19 compounds.

As a reminder, the IC50 is the point on the concentration scale where inhibition reaches its midpoint. Low values mean greater potency in that assay, high ones weaker potency in that assay. The term inhibition denotes the change of the read-out against control, counted positive when it falls.

T1 sequence (P00533 669-1210 limits assumed): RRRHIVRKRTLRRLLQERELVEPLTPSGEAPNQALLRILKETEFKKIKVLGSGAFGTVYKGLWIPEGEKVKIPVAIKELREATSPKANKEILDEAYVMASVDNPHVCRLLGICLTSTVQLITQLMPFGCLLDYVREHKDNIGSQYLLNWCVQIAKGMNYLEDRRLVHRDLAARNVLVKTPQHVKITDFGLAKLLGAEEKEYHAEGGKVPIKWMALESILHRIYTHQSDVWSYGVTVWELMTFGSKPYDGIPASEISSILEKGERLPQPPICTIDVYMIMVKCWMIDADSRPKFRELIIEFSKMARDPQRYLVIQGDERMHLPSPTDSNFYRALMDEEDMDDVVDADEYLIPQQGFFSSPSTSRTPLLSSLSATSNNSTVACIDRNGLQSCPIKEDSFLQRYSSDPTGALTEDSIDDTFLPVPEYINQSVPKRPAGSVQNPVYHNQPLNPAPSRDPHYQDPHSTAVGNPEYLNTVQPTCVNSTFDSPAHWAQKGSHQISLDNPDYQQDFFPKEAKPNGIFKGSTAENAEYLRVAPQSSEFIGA

One experiment has as its target T1, EGFR (Homo sapiens, UniProt P00533).
T1 construct: The intracellular portion of EGFR started at nucleotide 2189 (corresponding to amino acid 667) and ended at the termination codon; made in house; host or cells: Sf9 insect cells (baculovirus)
The experiment is described as follows: EGFR Kinase Assay. The experiment is classed as biochemical. The following applies: GST-EGFR, ATP 5 μM. From the text:
The EGFR kinase used was a fusion of Glutathione-S-Transferase (GST) and a PCR amplified intracellular portion of EGFR (Accession Number NM_005228). The intracellular portion of EGFR started at nucleotide 2189 (corresponding to amino acid 667) and ended at the termination codon. The portion was PCR amplified with primers that added the lambda attB sequences to each end, recombined into an entry vector, then into a GST destination vector (as described in Gateway Technologies Manual by Invitrogen Corporation, Carlsbad, Calif.).
The destination vector was recombined in the DH10BAC strain of bacteria to produce a bacmid. The bacmid was transfected into Sf 9 cells and the supernatant containing the baculovirus was collected. The GSTEGFR protein was purified using large cultures of Sf 9 cells infected with stock virus. After an appropriate period of time, the cells were collected and lysed. The GSTEGFR was then purified from the lysate on Glutathione-Sepharose columns (as described by Amersham Biosciences, Buckinghamshire, United Kingdom).
The EGFR substrate was prepared by biotinylating polyGluTyr (128 mg) (Sigma, St. Louis, Mo.) in a 1×PBS buffer incubated together with a 12-fold molar excess of Sulfo-NHS-LC-Biotin on ice for at least 2 hrs. The free biotin was separated from the biotinylated polyGluTyr on a gel filtration column.
A mixture of a 10× kinase buffer (500 mM Tris at pH 8.0, 100 mM Magnesium Chloride and 1 mM Sodium Vanadate), DTT (1 mM final from 500 mM stock), ATP (5 μM final from 10 mM stock), biotinylated polyGluTyr (10 μg/μL stock), γ-^33P ATP (10 μCl/μL stock) and water was added to each well (for a total of 90 μL/well) of a Streptavidin Flashplate (Perkin Elmer, Wellesley, Mass.).
Test compound in 100% DMSO (2 μL) was added to the appropriate wells. Diluted GSTEGFR (1:300 dilution in 50 mM Tris at pH 8.0 and 0.1% bovine serum albumin) (10 μL) was added to the wells to initiate the reactions.
The plates were incubated at 30° C. for 1 hr with shaking. The reacted contents were removed and the plates were sequentially washed three times with a 1×PBS stop buffer (300 μL without Magnesium and Calcium) and 100 mM EDTA. After the final wash, the same stop buffer (200 μL) was added to the wells. The plates were then sealed and read on the TopCount scintillation counter.
Test compounds were assayed in triplicate at 16 concentrations at half-log dilutions starting at 200 uM. A maximum and minimum signal for the assay was determined on each plate. The percent inhibition of a test compound was calculated according to the formula: […]
For a series of test concentrations, the IC50 was derived by graphing percent inhibition against the log of the concentrations tested for a given compound. For those compounds without an IC50, the inhibition values in percent are shown at a test concentration of 2 μM. For compounds with multiple values, each value represents a separate assay result.
In the case of `O=C1Nc2c(-c3ccccc3)sc3ncnc(c23)N1c1ccc(F)c(Cl)c1` [Cpd 8, 5-(3-chloro-4-fluoro-phenyl)-2-phenyl-3H,5H-1-thia-3,5,6,8-tetraaza-acenaphthylen-4-one], the 50% inhibitory concentration (IC50) worked out at 542 nM.

For `COc1cc(N2C(=O)Nc3c(C(=O)Nc4ccc(CN5CCCCC5)cc4)sc4ncnc2c34)c(Cl)c(OC)c1OC` [Cpd 26, 5-(2-chloro-3,4,5-trimethoxy-phenyl)-4-oxo-4,5-dihydro-3H-1-thia-3,5,6,8-tetraaza-acenaphthylene-2-carboxylic acid (4-piperidin-1-ylmethyl-phenyl)-amide], the IC50 was found to be 9260 nM.

The compound `COc1cc(NC(=O)c2sc3ncnc4c3c2NC(=O)N4c2cc(OC)c(OC)c(OC)c2)ccc1OCCN1CCOCC1` [Cpd 27, 4-oxo-5-(3,4,5-trimethoxy-phenyl)-4,5-dihydro-3H-1-thia-3,5,6,8-tetraaza-acenaphthylene-2-carboxylic acid [3-methoxy-4-(2-morpholin-4-yl-ethoxy)-phenyl]-amide] gave an IC50 of 41500 nM.

Regarding `COc1cc(NC(=O)c2sc3ncnc4c3c2NC(=O)N4c2ccc(F)c(Cl)c2)ccc1OCCN1CCOCC1` [Cpd 20, 5-(3-chloro-4-fluoro-phenyl)-4-oxo-4,5-dihydro-3H-1-thia-3,5,6,8-tetraaza-acenaphthylene-2-carboxylic acid [3-methoxy-4-(2-morpholin-4-yl-ethoxy)-phenyl]-amide], the IC50 was determined as 30 nM.

Regarding `NCc1ccc(NC(=O)c2sc3ncnc4c3c2NC(=O)N4c2ccc(F)c(Cl)c2)cn1` [Cpd 23, 5-(3-chloro-4-fluoro-phenyl)-4-oxo-4,5-dihydro-3H-1-thia-3,5,6,8-tetraaza-acenaphthylene-2-carboxylic acid (6-aminomethyl-pyridin-3-yl)-amide], half-maximal inhibition (IC50) was put at 27 nM.

With `COc1cc(NC(=O)c2sc3ncnc4c3c2NC(=O)N4c2ccc(F)c(Cl)c2)ccc1O` [Cpd 19, 5-(3-chloro-4-fluoro-phenyl)-4-oxo-4,5-dihydro-3H-1-thia-3,5,6,8-tetraaza-acenaphthylene-2-carboxylic acid (4-hydroxy-3-methoxy-phenyl)-amide], half-maximal inhibition (IC50) was put at 43 nM.

As to `O=C(Nc1cccnc1)c1sc2ncnc3c2c1NC(=O)N3c1ccc(F)c(Cl)c1` [Cpd 5, 5-(3-chloro-4-fluoro-phenyl)-4-oxo-4,5-dihydro-3H-1-thia-3,5,6,8-tetraaza-acenaphthylene-2-carboxylic acid pyridin-3-ylamide], the IC50 is 69 nM.

With `C#Cc1cccc(N2C(=O)Nc3c(C(=O)Nc4ccc(CNC5CCNCC5)cc4)sc4ncnc2c34)c1` [Cpd 24, 5-(3-ethynyl-phenyl)-4-oxo-4,5-dihydro-3H-1-thia-3,5,6,8-tetraaza-acenaphthylene-2-carboxylic acid [4-(piperidin-4-ylaminomethyl)-phenyl]-amide], the IC50 was determined as 126 nM.

Take `COc1ccc(CC(=O)Nc2sc3ncnc4c3c2NC(=O)N4c2ccc(F)c(Cl)c2)cc1OC` [Cpd 158, N-[5-(3-chloro-4-fluoro-phenyl)-4-oxo-4,5-dihydro-3H-1-thia-3,5,6,8-tetraaza-acenaphthylen-2-yl]-2-(3,4-dimethoxy-phenyl)-acetamide]: half-maximal inhibition (IC50) was put at 2430 nM.

Compound `Nc1sc2ncnc3c2c1NC(=O)N3c1ccc(F)c(Cl)c1` [Cpd 157, 2-amino-5-(3-chloro-4-fluoro-phenyl)-3H,5H-1-thia-3,5,6,8-tetraaza-acenaphthylen-4-one] yielded a concentration for half-maximal inhibition (IC50) of 371 nM.

`O=C(Nc1nccs1)c1sc2ncnc3c2c1NC(=O)N3c1ccc(F)c(Cl)c1` [Cpd 4, 5-(3-chloro-4-fluoro-phenyl)-4-oxo-4,5-dihydro-3H-1-thia-3,5,6,8-tetraaza-acenaphthylene-2-carboxylic acid thiazol-2-ylamide]: 72 nM corresponded to half-maximal inhibition (IC50).

`O=C(Nc1ccc(CNC[C@H]2CCCO2)cc1)c1sc2ncnc3c2c1NC(=O)N3c1ccc(F)c(Cl)c1` [Cpd 17, 5-(3-chloro-4-fluoro-phenyl)-4-oxo-4,5-dihydro-3H-1-thia-3,5,6,8-tetraaza-acenaphthylene-2-carboxylic acid [4-({[(2R)-tetrahydro-furan-2-ylmethyl]-amino}-methyl)-phenyl]-amide] displayed a concentration for half-maximal inhibition (IC50) of 44 nM.

In turn, `COc1ccc(C(=O)Nc2sc3ncnc4c3c2NC(=O)N4c2ccc(F)c(Cl)c2)cc1OC` [Cpd 159, N-[5-(3-chloro-4-fluoro-phenyl)-4-oxo-4,5-dihydro-3H-1-thia-3,5,6,8-tetraaza-acenaphthylen-2-yl]-3,4-dimethoxy-benzamide] displayed an IC50 of 1040 nM.

Compound `COc1cc(NC(=O)c2sc3ncnc4c3c2NC(=O)N4c2ccc(F)c(Cl)c2)ccc1OCCC1CCNCC1` [Cpd 22, 5-(3-chloro-4-fluoro-phenyl)-4-oxo-4,5-dihydro-3H-1-thia-3,5,6,8-tetraaza-acenaphthylene-2-carboxylic acid [3-methoxy-4-(2-piperidin-4-yl-ethoxy)-phenyl]-amide] registered an IC50 of 42 nM.

Compound `O=C(Nc1ccc(NCCCN2CCOCC2)nc1)c1sc2ncnc3c2c1NC(=O)N3c1ccc(F)c(Cl)c1` [Cpd 6, 5-(3-chloro-4-fluoro-phenyl)-4-oxo-4,5-dihydro-3H-1-thia-3,5,6,8-tetraaza-acenaphthylene-2-carboxylic acid [6-(3-morpholin-4-yl-propylamino)-pyridin-3-yl]-amide] gave a half-inhibitory concentration (IC50) of 83 nM.

For the compound `COc1cc(NC(=O)c2sc3ncnc4c3c2NC(=O)N4c2ccc(F)c(Cl)c2)ccc1OCCCN1CCCCC1` [Cpd 21, 5-(3-chloro-4-fluoro-phenyl)-4-oxo-4,5-dihydro-3H-1-thia-3,5,6,8-tetraaza-acenaphthylene-2-carboxylic acid [3-methoxy-4-(3-piperidin-1-yl-propoxy)-phenyl]-amide], half-maximal inhibition (IC50) required 27 nM.

In turn, `O=C1Nc2c([N+](=O)[O-])sc3ncnc(c23)N1c1ccc(F)c(Cl)c1` [Cpd 156, 5-(3-chloro-4-fluoro-phenyl)-2-nitro-3H,5H-1-thia-3,5,6,8-tetraaza-acenaphthylen-4-one] displayed an IC50 of 1370 nM.

Compound `COc1ccc(NC(=O)c2sc3ncnc4c3c2NC(=O)N4c2ccc(F)c(Cl)c2)cc1OC` [Cpd 2, 5-(3-chloro-4-fluoro-phenyl)-4-oxo-4,5-dihydro-3H-1-thia-3,5,6,8-tetraaza-acenaphthylene-2-carboxylic acid (3,4-dimethoxy-phenyl)-amide] displayed a half-inhibitory concentration (IC50) of 37 nM.

Still in this experiment, the particulars now being: test concentration of 2 μM; compounds without an IC50; read-out: EGFR inhibition in percent.
With `COc1cc(N2C(=O)Nc3c(C(=O)Nc4ccc(CN5CCCCC5)cc4)sc4ncnc2c34)cc(OC)c1OC` [Cpd 28, 5-(3,4,5-trimethoxy-phenyl)-4-oxo-4,5-dihydro-3H-1-thia-3,5,6,8-tetraaza-acenaphthylene-2-carboxylic acid (4-piperidin-1-ylmethyl-phenyl)-amide], the inhibition at 2 µM amounted to 15%.
